From patent US20220202810A1 (Lake O'Hara LLC, priority 2020, published 2022)
Where two headings read alike, the source gives them in different places.

Assays:
[1] = cited from earlier work
[2] = PBPK modeling of schizophrenia patients, FDA label and modified dosing regimens; design: species or system human; settings: for Days Reduced to Reach Pharmacokinetic Endpoints: EC50 / Days Reduced to Reach Pharmacokinetic Endpoints: EC80 / Days Reduced to Reach Pharmacokinetic Endpoints: Steady State: modified regimen of Table F vs FDA label, Obese
Description: PBPK Modeling of Patients Dosed with Brexpiprazole According to the FDA Label
Although the PBPK modeling was based on the dosing regimen for schizophrenia according to the FDA label (REXULTI®, 3/2020), pharmacokinetic parameters are dose-dependent and expected to be similar in MDD.
In order to simulate brexpiprazole under various conditions, a whole-body PBPK model was constructed to capture the drug's kinetics in major tissues. Model tissue compartments included adipose, bone, brain, large intestine, small intestine, heart, kidney, liver, lung, muscle, spleen, stomach, and skin tissues, as well as venous and arterial blood compartments. In order to accurately capture first-pass clearance effects on the drug, the model also included correct representation of the gastrointestinal tract organs and the liver. […] Drug distribution into each tissue compartment was modeled assuming perfusion-limited kinetics, with partitioning into tissue described by a partition coefficient (Kp) estimated using methods described by Poulin and Theil (2002). Brexpiprazole-specific biochemical parameters such as the log of octanol:water partition coefficient (logP), negative log acid dissociation constant (pKa), fraction unbound in the plasma (fup), blood:plasma concentration ratio (BP), and clearance were obtained from literature; additional physiochemical properties used to calculate Kps were obtained via DrugBank. […] Simulations were carried out in a virtual population of 500 normal-weight and 500 obese individuals with age- and sex-specific physiological parameters (i.e. tissue flows and volumes) sampled from the National Health and Nutrition Examination Survey (NHANES) dataset.
PBPK Modeling of Schizophrenia Patients Treated with Higher Doses According to Modified Methods
A modified dosing regimen was developed so that obese and CYP2D6 PM patients reach therapeutic levels earlier (Table F). […] On day 8, patients returned to administering the recommended dose once daily. […] On day 15, patients returned to administering the recommended dose once daily.

[3] = brexpiprazole patients; cited from earlier work
[4] = cited from earlier work; remark: listed apart in the source

**Q.** With `O=c1ccc2ccc(OCCCCN3CCN(c4cccc5sccc45)CC3)cc2[nH]1` [Brexpiprazole, 7-{4-[4-(1-Benzothiophen-4-yl)piperazin-1-yl]butoxy}quinolin-2(1H)-one] as the molecule, how does the “AUC Observed” value ([1]; NDA Study1, IV, 0.25 mg) read?
**A.** 172 ng·h/mL

**Q.** What about the “Cmax Observed” value ([1]; NDA Study1, IV, 0.25 mg) of the same molecule?
**A.** 4.73 ng/mL

**Q.** What about the “Tmax Observed” value ([1]; NDA Study1, IV, 0.25 mg) of the same molecule?
**A.** 1 h

**Q.** What about the “AUC Observed” value ([1]; NDA Study1, PO, 0.2 mg) of the same molecule?
**A.** 123 ng·h/mL

**Q.** What about the “Cmax Observed” value ([1]; NDA Study1, PO, 0.2 mg) of the same molecule?
**A.** 2.62 ng/mL

**Q.** What about the “Tmax Observed” value ([1]; NDA Study1, PO, 0.2 mg) of the same molecule?
**A.** 2 h

**Q.** And the “AUC Observed” value ([1]; NDA Study1, PO, 0.5 mg)?
**A.** 287 ng·h/mL

**Q.** What about the “Cmax Observed” value ([1]; NDA Study1, PO, 0.5 mg) of the same molecule?
**A.** 6.64 ng/mL

**Q.** What about the “Tmax Observed” value ([1]; NDA Study1, PO, 0.5 mg) of the same molecule?
**A.** 4 h

**Q.** What about the “AUC Observed” value ([1]; NDA Study1, PO, 1 mg) of the same molecule?
**A.** 636 ng·h/mL

**Q.** And the “Cmax Observed” value ([1]; NDA Study1, PO, 1 mg)?
**A.** 11.70 ng/mL

**Q.** What about the “Tmax Observed” value ([1]; NDA Study1, PO, 1 mg) of the same molecule?
**A.** 6 h

**Q.** And the “AUC Observed” value ([1]; NDA Study1, PO, 2 mg)?
**A.** 1690 ng·h/mL

**Q.** And the “Cmax Observed” value ([1]; NDA Study1, PO, 2 mg)?
**A.** 22.10 ng/mL

**Q.** What about the “Tmax Observed” value ([1]; NDA Study1, PO, 2 mg) of the same molecule?
**A.** 6 h

**Q.** What about the “AUC Observed” value ([1]; NDA Study2, PO, 2 mg) of the same molecule?
**A.** 2160 ng·h/mL

**Q.** And the “Cmax Observed” value ([1]; NDA Study2, PO, 2 mg)?
**A.** 24.60 ng/mL

**Q.** What about the “Tmax Observed” value ([1]; NDA Study2, PO, 2 mg) of the same molecule?
**A.** 4 h

**Q.** And the “AUC Observed” value ([1]; NDA Study2, PO, 4 mg)?
**A.** 2760 ng·h/mL

**Q.** And the “Cmax Observed” value ([1]; NDA Study2, PO, 4 mg)?
**A.** 47.20 ng/mL

**Q.** And the “Tmax Observed” value ([1]; NDA Study2, PO, 4 mg)?
**A.** 6 h

**Q.** And the “AUC Observed” value ([1]; NDA Study2, PO, 6 mg)?
**A.** 5230 ng·h/mL

**Q.** What about the “Cmax Observed” value ([1]; NDA Study2, PO, 6 mg) of the same molecule?
**A.** 71.10 ng/mL

**Q.** What about the “Tmax Observed” value ([1]; NDA Study2, PO, 6 mg) of the same molecule?
**A.** 6 h

**Q.** What about the “AUC Observed” value ([1]; NDA Study2, PO, 8 mg) of the same molecule?
**A.** 7920 ng·h/mL

**Q.** What about the “Cmax Observed” value ([1]; NDA Study2, PO, 8 mg) of the same molecule?
**A.** 79.20 ng/mL

**Q.** And the “Tmax Observed” value ([1]; NDA Study2, PO, 8 mg)?
**A.** 6 h

**Q.** And the “Days Reduced to Reach Pharmacokinetic Endpoints: EC50” value ([2]; EM)?
**A.** 3 days

**Q.** And the “Days Reduced to Reach Pharmacokinetic Endpoints: EC80” value ([2]; EM)?
**A.** 3 days

**Q.** And the “Days Reduced to Reach Pharmacokinetic Endpoints: Steady State” value ([2]; EM)?
**A.** -4 days

**Q.** And the “Days Reduced to Reach Pharmacokinetic Endpoints: EC50” value ([2]; PM)?
**A.** 2 days

**Q.** And the “Days Reduced to Reach Pharmacokinetic Endpoints: EC80” value ([2]; PM)?
**A.** 5 days

**Q.** And the “Days Reduced to Reach Pharmacokinetic Endpoints: Steady State” value ([2]; PM)?
**A.** -29 days

**Q.** What about the “time to reach therapeutic concentrations vs once daily dosing” value ([2]; schizophrenia, normal-weight CYP2D6 PM, Modified Dosing Regimen 3) of the same molecule?
**A.** three days faster

**Q.** And the “time to reach therapeutic concentrations vs FDA label dosing” value ([2]; schizophrenia, obese CYP2D6 EM, twice the starting and recommended daily doses for the first 7 days)?
**A.** three days faster

**Q.** What about the “time to reach therapeutic concentrations vs once daily dosing” value ([2]; schizophrenia, obese CYP2D6 PM, twice the starting and recommended daily doses for the first 14 days) of the same molecule?
**A.** five days faster

**Q.** What about the akathisia rates [3] of the same molecule?
**A.** dose-dependent

**Q.** And the “decrease of baseline clearance by CYP2D6 PM status” value ([4]; CYP2D6 PM)?
**A.** ~30%

**Q.** And the “brexpiprazole clearance due to CYP3A4” value ([4]; based on the literature)?
**A.** 46.7%

**Q.** What about the “clearance due to other routes” value ([4]; based on the literature) of the same molecule?
**A.** 10%

**Q.** And the “remaining clearance due to CYP2D6” value ([4]; based on the literature)?
**A.** 43.3%

**Q.** And the “effect of weight on the pharmacokinetics of brexpiprazole” value ([4]; previous studies, no patients with BMI>35 kg/m^2)?
**A.** less than 20%

**Q.** And the renal clearance ([4]; share of brexpiprazole clearance)?
**A.** ~1%
